Assays:
[1] = target: T1, cytochrome bc1 complex (Btbc1), cyt b subunit (Bos taurus, UniProt P00157); experiment: cyt c reduction assay with purified bc1; type: biochemical
T1 construct: gene MT-CYB; purified 11-subunit mitochondrial bc1 complex from beef heart; with cyt c1, iron-sulfur protein (bc1 complex)

[2] = target: T1, cytochrome bc1 complex (Btbc1), cyt b subunit; experiment: cyt c reduction assay with purified bc1; also difference spectra and Lineweaver-Burk kinetics; type: biochemical
[3] = tested on: T2, Complex III (cyt bc1 complex), cyt b subunit; experiment: cyt c reduction with decylubiquinol in isolated mitochondria, […] inhibition at […]; type: cell-based, Phytophthora capsici; settings: 4 µM
T2 construct: light mitochondrial fraction; with cyt c1, iron-sulfur protein (bc1 complex)

[4] = target: T3, cytochrome bc1 complex (Rsbc1), cyt b subunit (Cereibacter sphaeroides, UniProt Q02761); experiment: cyt c reduction assay with purified bc1; Lineweaver-Burk kinetics; type: biochemical
T3 construct: gene petB; purified hexahistidine-tagged 4-subunit bc1 complex; with cyt c1, iron-sulfur protein (bc1 complex)
T3 sequence (Q02761 2-445): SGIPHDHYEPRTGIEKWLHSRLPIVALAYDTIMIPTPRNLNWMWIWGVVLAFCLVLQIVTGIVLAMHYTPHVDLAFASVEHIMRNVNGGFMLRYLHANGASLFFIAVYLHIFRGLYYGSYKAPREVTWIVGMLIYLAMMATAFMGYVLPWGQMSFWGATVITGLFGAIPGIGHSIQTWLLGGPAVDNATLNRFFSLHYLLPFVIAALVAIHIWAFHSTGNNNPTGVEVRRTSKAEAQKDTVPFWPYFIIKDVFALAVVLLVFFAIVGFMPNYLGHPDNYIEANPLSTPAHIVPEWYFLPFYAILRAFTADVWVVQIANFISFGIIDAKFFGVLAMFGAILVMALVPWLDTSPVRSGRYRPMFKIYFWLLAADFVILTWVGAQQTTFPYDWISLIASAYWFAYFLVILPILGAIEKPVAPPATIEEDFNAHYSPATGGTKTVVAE

[5] = target: T1, cytochrome bc1 complex (Btbc1), cyt b subunit; experiment: Lineweaver-Burk kinetics at […]; difference spectra; single turnover; type: biochemical

T1 sequence (P00157 whole entry): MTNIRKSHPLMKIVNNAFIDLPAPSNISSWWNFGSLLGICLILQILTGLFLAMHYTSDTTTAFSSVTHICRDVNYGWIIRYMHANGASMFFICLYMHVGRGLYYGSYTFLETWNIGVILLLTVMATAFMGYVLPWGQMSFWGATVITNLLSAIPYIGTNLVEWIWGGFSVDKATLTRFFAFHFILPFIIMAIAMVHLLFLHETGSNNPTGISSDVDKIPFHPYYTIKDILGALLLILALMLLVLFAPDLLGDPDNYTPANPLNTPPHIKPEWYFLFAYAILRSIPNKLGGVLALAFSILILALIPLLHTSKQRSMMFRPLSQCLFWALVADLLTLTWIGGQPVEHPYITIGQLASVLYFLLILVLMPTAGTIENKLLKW
T1 sequence (P13272 79-274 partner): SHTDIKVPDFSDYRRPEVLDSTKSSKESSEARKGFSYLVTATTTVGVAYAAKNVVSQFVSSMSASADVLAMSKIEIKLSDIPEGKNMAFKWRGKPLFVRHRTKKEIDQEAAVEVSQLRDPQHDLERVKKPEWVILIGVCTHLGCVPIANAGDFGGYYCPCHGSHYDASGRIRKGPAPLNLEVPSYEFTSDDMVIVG
T1 sequence (P00125 85-325 partner): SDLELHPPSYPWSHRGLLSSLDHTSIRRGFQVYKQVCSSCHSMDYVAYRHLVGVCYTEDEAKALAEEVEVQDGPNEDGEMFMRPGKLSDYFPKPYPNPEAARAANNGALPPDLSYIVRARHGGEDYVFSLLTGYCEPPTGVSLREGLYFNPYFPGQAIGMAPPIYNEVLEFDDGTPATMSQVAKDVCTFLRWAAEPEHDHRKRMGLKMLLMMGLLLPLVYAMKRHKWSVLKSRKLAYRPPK

For `CO/C=C(/C(=O)OC)c1ccccc1Oc1cc(Oc2ccccc2C#N)ncn1` [azoxystrobin], the IC50 [1] was 0.0477 µM.
In the case of `CC(C)(C)c1ccc(/C(=C/C(=O)N2CCOCC2)c2ccnc(Cl)c2)cc1` [pyrimorph, (Z)-3-[(2-chloropyridine-4-yl)-3-(4-tert-butylphenyl)-acryloyl] morpholine], the IC50 [2] is reported as 85 µM, the percent inhibition [3] is reported as 95.3 and the IC50 [4] is reported as 69.2 µM.
Compound `C/C=C(C)/C=C/C=C/[C@H](OC)[C@@H](C)[C@@H](OC)[C@@H](C)CCc1oc2c(O)c(OC)cc(OC)c2c(=O)c1C` [stigmatellin] has an IC50 [1] of 0.0028 µM.
With `CO/C(=C/C(N)=O)[C@H](C)[C@H](/C=C/c1csc(-c2csc([C@@H](C)/C=C/C=C/C(C)C)n2)n1)OC` [myxothiazol] the “Lineweaver-Burk kinetics at 30 and 50 nM; difference spectra; single turnover” value [5] was “myxothiazol is a competitive inhibitor for the substrate quinol but a non-competitive inhibitor for cyt c”.
